Results reported in PMC8123555, “Precision targeting of the plasminogen activator inhibitor‐1 mechanism increases efficacy of fibrinolytic therapy in empyema” (Physiological Reports, 2021).
Where two headings read alike, the source gives them in different places. Where no end group is shown, it is not given here.

Key:
PAI‐1 = conditions: alanine mutations of positively charged residues in the 37-loop; ref Benedict et al., 1995; Florova et al., 2018; Keyt et al., 1994; cited from earlier work
Source text: Plasminogen Activator Inhibitor‐1 (PAI‐1) is a mechanism‐based inhibitor of tissue type (tPA) and urokinase (uPA) plasminogen activators (PAs) (Carrell et al., 1991; Chaillan‐Huntington et al., 1997; Mourik et al., 1984) used for fibrinolytic therapy. Levels of PAI‐1 increase by up to three orders of magnitude in empyema (pleural sepsis), and organizing pleural injury (Aleman et al., 2003; Chung et al., 2005; Philip‐Joet et al., 1995), limiting endogenous and exogenous plasminogen activating activity that could help prevent or treat uncontrolled fibrin deposition induced by inflammation. Previ ...

[1] = rabbit, in vivo
Procedure: All animal procedures were approved by the Institutional Animal Care and Use Committee at The University of Texas Health Science Center at Tyler (IACUC protocols 499,616,617). Studies used female, pathogen‐free New Zealand white rabbits (3.0–3.6 kg; average age 18 weeks) from Charles River Laboratories (Wilmington, MA). These studies required a total of 107 rabbits, 43 for the model of TCN‐induced pleural injury and 64 for the model of empyema. […] Briefly, a 3 ml mixture of TCN in ascorbic acid (20 mg/ml TCN (T3258, Sigma‐Aldrich), 2.5 mg/ml ascorbic acid (A7506, Sigma‐Aldrich) and lidocaine (1 mg/ml, UTHCT Compounding Pharmacy), was delivered by intrapleural injection. A model of acute empyema in rabbits was induced as described previously (Komissarov et al., 2016). Briefly, 1–5 × 10^8 cfu of S. pneumoniae (D39 strain, National Collection of Type Cultures, Salisbury UK) in 3 ml of 0.5% brain‐heart infusion agar (BD 238400, BD Diagnostic Systems) was delivered by intrapleural injection. Clavomox (10 mg/kg, subcutaneous, daily for 1–3 days as clinically indicated by Attending Veterinarian) (10000485, Zoetis) was started at 28–30 h post‐infection. Accumulation of pleural fluid and fibrin deposition was monitored using ultrasonography; detailed in the ultrasonography subsection. After 48 or 72 h for TCN‐induced pleural injury and empyema, respectively, intrapleural therapeutics were administered depending on treatment group via an 18‐gauge catheter, which was flushed with 0.5 ml PBS. In all experiments, samples of pleural fluids (0.5 ml) from each rabbit were collected prior to and at 10, 20, and 40 min after PAI‐1‐TFT and processed for later analysis (Florova et al., 2015; Karandashova et al., 2013; Komissarov et al., 2013, 2016). […] Animals were monitored carefully for signs of distress, pain, and worsening clinical status. […]
The residual DSP in pleural fluid samples was determined using LC MS/MS. […]

in vivo = conditions: rabbit
Procedure: All animal procedures were approved by the Institutional Animal Care and Use Committee at The University of Texas Health Science Center at Tyler (IACUC protocols 499,616,617). Studies used female, pathogen‐free New Zealand white rabbits (3.0–3.6 kg; average age 18 weeks) from Charles River Laboratories (Wilmington, MA). These studies required a total of 107 rabbits, 43 for the model of TCN‐induced pleural injury and 64 for the model of empyema. […] Briefly, a 3 ml mixture of TCN in ascorbic acid (20 mg/ml TCN (T3258, Sigma‐Aldrich), 2.5 mg/ml ascorbic acid (A7506, Sigma‐Aldrich) and lidocaine (1 mg/ml, UTHCT Compounding Pharmacy), was delivered by intrapleural injection. A model of acute empyema in rabbits was induced as described previously (Komissarov et al., 2016). Briefly, 1–5 × 10^8 cfu of S. pneumoniae (D39 strain, National Collection of Type Cultures, Salisbury UK) in 3 ml of 0.5% brain‐heart infusion agar (BD 238400, BD Diagnostic Systems) was delivered by intrapleural injection. Clavomox (10 mg/kg, subcutaneous, daily for 1–3 days as clinically indicated by Attending Veterinarian) (10000485, Zoetis) was started at 28–30 h post‐infection. Accumulation of pleural fluid and fibrin deposition was monitored using ultrasonography; detailed in the ultrasonography subsection. After 48 or 72 h for TCN‐induced pleural injury and empyema, respectively, intrapleural therapeutics were administered depending on treatment group via an 18‐gauge catheter, which was flushed with 0.5 ml PBS. In all experiments, samples of pleural fluids (0.5 ml) from each rabbit were collected prior to and at 10, 20, and 40 min after PAI‐1‐TFT and processed for later analysis (Florova et al., 2015; Karandashova et al., 2013; Komissarov et al., 2013, 2016). Anesthesia, postoperative pain medication, and animal care were provided as reported previously (Florova et al., 2015; Karandashova et al., 2013; Komissarov et al., 2013, 2016). with details provided in the supplement. Animals were monitored carefully for signs of distress, pain, and worsening clinical status. Euthanasia was accomplished using intravenous injection of 1 ml of commercial euthanasia solution (sodium pentobarbital 390 mg/ml and phenytoin 50 mg/ml) followed by exsanguination.
The residual DSP in pleural fluid samples was determined using LC MS/MS. Briefly, collected samples were extracted using acetonitrile, cleaned with Microcon centrifugal filters (MRCPRT010, MilliporeSigma) and injected via autosampler onto a Pinnacle DB C8 Column (9413332, Restek) reverse‐phase column operated at a flow rate of 200 μl/min. A gradient elution method using solvent A (99% H2O, 1% acetonitrile, 0.05% TFA) for 5 min, a gradient to 100% solvent B (1% H2O, 99% acetonitrile, 0.05% TFA) over 25 min, and 100% solvent B for 2 min was employed. […]

[2] = rabbit, in vivo; remark: listed apart in the source
Procedure: (§1) FIGURE 7 Low dose PAI‐1‐TFT induces no intrapleural bleeding. Pleural fluids from rabbits with TCN‐induced (a) or S. pneumoniae‐induced (b) pleural injury were collected at necropsy and red blood cells (RBC) were counted using a Beckman Coulter. (a) Animals with TCN‐induced pleural injury were treated (from left to right) with vehicle control (n = 6); 62.5 µg/kg of scuPA alone (n = 6); and with 2.0 mg/kg DSP (n = 6); 72.5 µg/kg of sctPA alone (n = 5), and with 2.0 mg/kg DSP (n = 6). (b) Animals with infectious pleural injury were treated (from left to right) with vehicle control (n = 6); 0.25 mg/kg of sctPA alone (n = 5), and with 8.0 mg/kg DSP (n = 6), 0.5 mg/kg of sctPA alone (n = 6), and with 8.0 mg/kg DSP (n = 6), 0.5 mg/kg of scuPA alone (n = 9), and with 8.0 mg/kg DSP (n = 3). […] Data are presented as box and whisker plots (all points shown)

[3] = Intrapleural bleeding, pleural fluid RBC counts, empyema; format: in vivo, rabbit
Procedure: as §1

Row | Substance | Rate of reaction with PAI-1 relative to the WT enzymes (PAI‐1) | Apparent first order rate constant of DSP clearance (kclr), slower phase [1] [min⁻¹] | DSP in pleural fluid at 24 h [1] | Presence of DSP in pleural fluid after treatment [1] | level at 40 min (in vivo; female, New Zealand white, 8 mg/kg) [µg/mL] | Apparent first order rate constant of DSP clearance (kclr), slower phase (in vivo) [min⁻¹] | DSP in pleural fluid at 24 h (in vivo) | Presence of DSP in pleural fluid after treatment (in vivo) | Bleeding accompanying PAI-1-TFT [2] | Bleeding accompanying PAI-1-TFT ([3]; DSP with plasminogen activator, empyema) | Pleural fluid RBC counts ([3]; any dose of DSP alone or in combination with plasminogen activator, pleural fluid at necropsy, Beckman Coulter)
1 | tenecteplase | almost two orders of magnitude slower |  |  |  |  |  |  |  |  |  | 
2 | EEIIMD [DSP, EEIIMD] |  | 0.03 to 0.07 | No DSP was detected | over 40 min | > 300 | 0.03 to 0.07 | No DSP was detected | over 40 min | no apparent local or systemic bleeding | no apparent local or systemic bleeding | no statistical difference
